# Values quoted from earlier work as cited in patent publication US20030203963A1, “Antimicrobial agent” (priority 2001, published 2003).
# Key:
# Conditions in all cases: cited from earlier work
# [1] = system: yeasts and moulds as well as catalase-positive bacteria
# Salmonella = system: Salmonella
# [2] = system: aerobic, Gram-negative bacteria
# [3] = system: Gram-positive bacteria, yeasts, and moulds
# bacteria = system: bacteria
molecule,measurement,setting,value
C/C=C/C=C/C(=O)O [Sorbic Acid],Effective concentration,[1],500-3000 ppm
Nisin,Inhibition of Salmonella,Salmonella; in food,unable to inhibit
O=S=O [Sulphur Dioxide],Effective concentrations for inhibition,[2],250-500 ppm
same,Effective concentrations,[3],800-2000 ppm
O=NO [nitrite],Concentration at which Salmonella is inhibited,Salmonella; meat products,"> 1,000 ppm"
Propionic Acid and Propionate,Concentrations necessary for inhibition of bacteria,bacteria,> 16000 ppm
